According to PMC8072719, “Synthesis and Antiproliferative Activity of Triazoles Based on 2-Azabicycloalkanes” (Materials, 2021):
Where two headings read alike, the source gives them in different places.

Tests used:
Hs294T = assay: Growth inhibition assay (SRB assay), melanoma cell line Hs294T; assay type: cell-based, human; details: 72 h, mean ± SD
Procedure: (§1) Three human cancer cell lines were used to evaluate the antiproliferative activity of the obtained compounds: melanoma cell line Hs294T, pancreatic tumor cell line MIA PaCa-2, and lung tumor cell line NCI-H1581. The normal mouse fibroblasts cell line (BALB/3T3 clone A31) was selected as reference. All these lines were purchased from the ATCC (American Type Culture Collection, Rockville, MD, USA). NCI-H1581 cells were grown in RPMI 1640 with GlutaMax medium (Gibco, Thermo Fisher Scientific, Leicestershire, UK) with 5% fetal bovine serum (FBS; HyClone, GE Healthcare, Logan, UT, USA). Hs294T and BALB/3T3 cells were grown in Dulbecco’s Modified Eagle Medium (DMEM; Gibco, Thermo Fisher Scientific, Leicestershire, UK) supplemented with 2 mM L-glutamine and 10% FBS (HyClone, GE Healthcare, Logan, UT, USA). MIA PaCa-2 cells were grown in DMEM (Gibco, Thermo Fisher Scientific, Leicestershire, UK) supplemented with 2 mM L-glutamine, 2.5% Horse Serum (Gibco, Thermo Fisher Scientific, Leicestershire, UK), and 10% FBS (HyClone, GE Healthcare, Logan, UT, USA). All culture media were supplemented with antibiotics: 100 U/mL penicillin (Polfa Tarchomin SA, Warsaw, Poland) and 100 µg/mL streptomycin (Sigma-Aldrich Chemie GmbH, Steinheim, Germany); cells were grown at 37 °C in a humid atmosphere with 5% CO2.
(§2) Twenty-four hours prior to the addition of the tested compounds, 2000 cells per well of Balb/3T3, MIA PaCa-2, and Hs294T cell lines and 2500 cells of NCI-H1581 cell line were seeded in 384-well plates (Greiner Bio-One, Kremsmünster, Austria) in an appropriate medium. The studied compounds were added to the cells at 8 different concentrations in a series of dilutions from 100 to 0.00001 µg/mL for 72 h. Cisplatin was applied as a reference compound (Teva Pharmaceuticals, Warsaw, Poland). DMSO (Sigma-Aldrich Chemie GmbH, Steinheim, Germany) was used as solvent control. The DMSO concentrations corresponded to the solvent concentrations in the tested compound solutions. Then, 30 µL per well of ice-cold 50% TCA (trichloroacetic acid, Avantor, Gliwice, Poland) was added to the cells. After one hour of incubation at room temperature (RT) cells were washed five times with water and stained with 0.4% SRB (sulforhodamine B, Sigma-Aldrich Chemie GmbH, Steinheim, Germany). Twenty-five microliters per well of 0.4% solution of SRB in 1% acetic acid (Avantor, Gliwice, Poland) was applied. After 0.5 h of incubation at RT, the unbound dye was washed out with 1% acetic acid. The bound dye in each well was dissolved in 70 µl of 10 mM TRIS (Tris base, Sigma-Aldrich, Chemie GmbH, Steinheim, Germany). A microplate reader (BioTek Synergy H4, Swindon, UK) with Gen5 software was used to read the absorbance at 540 nm. The results are presented as mean IC50 values (concentration of the compound that inhibits cell proliferation by 50%) ± standard deviation. Half-maximal inhibitory concentration (IC50) values were calculated using the Prolab-3 system based on Cheburator 0.4 [22]. Each experiment was performed in triplicate, and three independent repetitions were made for each experiment. Raw data and IC50 values were placed in the supplementary materials.

NCI-H1581 = assay: Growth inhibition assay (SRB assay), lung tumor cell line NCI-H1581; assay type: cell-based, human; details: for SI (Selectivity Index): SI = IC50 for normal cell line BALB/3T3 / IC50 for NCI-H1581
Procedure: as §1, §2

MIA PaCa-2 = assay: Growth inhibition assay (SRB assay), pancreatic tumor cell line MIA PaCa-2; assay type: cell-based, human; details: mean ± SD
Procedure: as §1, §2

BALB/3T3 clone A31 = assay: Growth inhibition assay (SRB assay), normal fibroblasts BALB/3T3 clone A31; assay type: cell-based, mouse; details: mean ± SD
Procedure: as §1, §2

[1] = Homo sapiens, Hs 294T, read-out: IC50 Hs294T
[2] = Homo sapiens, Hs 294T, supplement, read-out: IC50 Hs294T (raw data)
[3] = Homo sapiens, NCI-H1581, 72 h, 72 h, SRB, mean ± SD, read-out: IC50 NCI-H1581
[4] = Homo sapiens, NCI-H1581, 72 h, supplement, 72 h, SRB, mean ± SD, read-out: IC50 NCI-H1581 (raw data)
[5] = Homo sapiens, MIA PaCa-2, 72 h, read-out: IC50 MIA PaCa-2
[6] = Homo sapiens, MIA PaCa-2, supplement, 72 h, read-out: IC50 MIA PaCa-2 (raw data)
[7] = Mus musculus, BALB/3T3 clone A31, 72 h, normal cell line, read-out: IC50 BALB3T3
[8] = Mus musculus, BALB/3T3 clone A31, 72 h, supplement, read-out: IC50 BALB3T3 (raw data)

IC50 (Hs294T; [1])	IC50 (Hs294T; [2])	IC50 (NCI-H1581; [3])	IC50 (NCI-H1581; [4])	IC50 (MIA PaCa-2; [5])	IC50 (MIA PaCa-2; [6])	Structure (SMILES)	SI (Selectivity Index) (NCI-H1581)	IC50 (BALB/3T3 clone A31; [7])	IC50 (BALB/3T3 clone A31; [8])	further results
						N.N.[Cl][Pt][Cl] [Cisplatin, reference compound]	0.3			IC50 (Hs294T; read-out: IC50 Hs294T): 1.3 ± 0.5 µM; IC50 Hs294T (raw data) (Hs294T; supplement): 0.39 ± 0.15 µg/mL; IC50 (NCI-H1581; 72 h, SRB, mean ± SD, listed as cisplatin, read-out: IC50 NCI-H1581): 7.3 µM; IC50 (NCI-H1581; 72 h, SRB, mean ± SD, read-out: IC50 NCI-H1581): 7.27 ± 2.83 µM; IC50 NCI-H1581 (raw data) (NCI-H1581; supplement, 72 h, SRB, mean ± SD): 2.18 ± 0.85 µg/mL; IC50 (MIA PaCa-2; 72 h, read-out: IC50 MIA PaCa-2): 12.6 ± 3.13 µM; IC50 MIA PaCa-2 (raw data) (MIA PaCa-2; supplement, 72 h): 3.79 ± 0.94 µg/mL; IC50 (BALB/3T3 clone A31; 72 h, normal cell line, read-out: IC50 BALB3T3): 1.83 ± 0.7 µM; IC50 BALB3T3 (raw data) (BALB/3T3 clone A31; supplement, 72 h): 0.55 ± 0.21 µg/mL
> 100 µM	> 100 µM	> 100 µM	> 100 µM	> 100 µM	> 100 µM	C[C@@H](c1ccccc1)N1C[C@@H](n2cc(CO)nn2)[C@@H]2CC[C@H]1C2 [Compound 1, (1-((1S,4S,5R)-2-((S)-1-phenylethyl)-2-azabicyclo[3.2.1]octan-4-yl)-1H-1,2,3-triazol-4-yl)methanol]		> 100 µM	> 100 µM	IC50 (Hs294T; Homo sapiens, Hs 294T, supplement, read-out: IC50 Hs294T (non-rounded data)): > 100 µM; IC50 (NCI-H1581; Homo sapiens, NCI-H1581, 72 h, supplement, 72 h, SRB, mean ± SD, read-out: IC50 NCI-H1581 (non-rounded data)): > 100 µM; IC50 (MIA PaCa-2; Homo sapiens, MIA PaCa-2, supplement, 72 h, read-out: IC50 MIA PaCa-2 (non-rounded data)): > 100 µM; IC50 (BALB/3T3 clone A31; Mus musculus, BALB/3T3 clone A31, 72 h, supplement, read-out: IC50 BALB3T3 (non-rounded data)): > 100 µM
> 100 µM	46.1 ± 2.17 µg/mL	72.3 ± 34 µM	22.6 ± 10.6 µg/mL	> 100 µM	71.4 ± 11.8 µg/mL	C[C@@H](c1ccccc1)N1C[C@H](n2cc(CO)nn2)[C@@H]2CC[C@H]1C2 [Compound 2, (1-((1S,4R,5R)-2-((S)-1-phenylethyl)-2-azabicyclo[3.2.1]octan-4-yl)-1H-1,2,3-triazol-4-yl)methanol]		> 100 µM	56.1 ± 8.24 µg/mL	
88.5 ± 9.41 µM	27.6 ± 2.93 µg/mL	11.3 ± 1.25 µM	3.51 ± 0.39 µg/mL	99.9 ± 4.46 µM	31.1 ± 1.39 µg/mL	C[C@@H](c1ccccc1)N1C[C@@H](n2cc(CN)nn2)[C@@H]2CC[C@H]1C2 [Compound 3, (1-((1S,4S,5R)-2-((S)-1-phenylethyl)-2-azabicyclo[3.2.1]octan-4-yl)-1H-1,2,3-triazol-4-yl)methanamine]	8	94.4 ± 1.89 µM	29.4 ± 0.59 µg/mL	
9.52 ± 2.51 µM	3.49 ± 0.92 µg/mL	7.91 ± 1.2 µM	2.9 ± 0.44 µg/mL	87.7 ± 1.66 µM	32.1 ± 0.61 µg/mL	C=CC(=O)OCc1cn([C@@H]2CN([C@@H](C)c3ccccc3)[C@H]3CC[C@@H]2C3)nn1 [Compound 4, (1-((1S,4S,5R)-2-((S)-1-phenylethyl)-2-azabicyclo[3.2.1]octan-4-yl)-1H-1,2,3-triazol-4-yl)methyl acrylate]	0.2	1.75 ± 0.76 µM	0.64 ± 0.28 µg/mL	
72.8 ± 9.71 µM	26.7 ± 3.56 µg/mL	18.8 ± 4.45 µM	6.88 ± 1.63 µg/mL	86.31 ± 0.35 µM	31.63 ± 0.13 µg/mL	C=CC(=O)OCc1cn([C@H]2CN([C@@H](C)c3ccccc3)[C@H]3CC[C@@H]2C3)nn1 [Compound 5, (1-((1S,4R,5R)-2-((S)-1-phenylethyl)-2-azabicyclo[3.2.1]octan-4-yl)-1H-1,2,3-triazol-4-yl)methyl acrylate]	1.5	28.5 ± 22.7 µM	10.5 ± 8.31 µg/mL	
74.5 ± 14.9 µM	27.8 ± 5.58 µg/mL	30.8 ± 3.51 µM	11.5 ± 1.31 µg/mL	84.4 ± 1.04 µM	31.5 ± 0.39 µg/mL	C[C@@H](c1ccccc1)N1C[C@@H](n2cc(-c3cccc(N)c3)nn2)[C@@H]2CC[C@H]1C2 [Compound 6, 3-(1-((1S,4S,5R)-2-((S)-1-phenylethyl)-2-azabicyclo[3.2.1]octan-4-yl)-1H-1,2,3-triazol-4-yl)aniline]	2.5	77.1 ± 1.1 µM	28.8 ± 0.41 µg/mL	
65.9 ± 8.3 µM	24.6 ± 3.1 µg/mL	7.39 ± 1.15 µM	2.76 ± 0.43 µg/mL	77 ± 1.98 µM	28.7 ± 0.74 µg/mL	C[C@@H](c1ccccc1)N1C[C@H](n2cc(-c3cccc(N)c3)nn2)[C@@H]2CC[C@H]1C2 [Compound 7, 3-(1-((1S,4R,5R)-2-((S)-1-phenylethyl)-2-azabicyclo[3.2.1]octan-4-yl)-1H-1,2,3-triazol-4-yl)aniline]	7	52.7 ± 6.16 µM	19.7 ± 2.3 µg/mL	
73.8 ± 10.1 µM	29.7 ± 4.07 µg/mL	15.48 ± 0.12 µM	6.23 ± 0.05 µg/mL	79.12 ± 0.5 µM	31.85 ± 0.2 µg/mL	C[C@@H](c1ccccc1)N1C[C@@H](n2cc(COCc3ccccc3)nn2)[C@@H]2CC[C@H]1C2 [Compound 8, (1S,4S,5R)-4-(4-((benzyloxy)methyl)-1H-1,2,3-triazol-1-yl)-2-((S)-1-phenylethyl)-2-azabicyclo[3.2.1]octane]	4	61.5 ± 3.28 µM	24.7 ± 1.32 µg/mL	
70.9 ± 5.86 µM	28.5 ± 2.36 µg/mL	8.52 ± 1.39 µM	3.43 ± 0.56 µg/mL	76.5 ± 4.37 µM	30.8 ± 1.76 µg/mL	C[C@@H](c1ccccc1)N1C[C@H](n2cc(COCc3ccccc3)nn2)[C@@H]2CC[C@H]1C2 [Compound 9, (1S,4R,5R)-4-(4-((benzyloxy)methyl)-1H-1,2,3-triazol-1-yl)-2-((S)-1-phenylethyl)-2-azabicyclo[3.2.1]octane]	6	50 ± 3.25 µM	20.1 ± 1.31 µg/mL	
10.3 ± 3.39 µM	6.26 ± 2.05 µg/mL	4.2 ± 0.36 µM	2.54 ± 0.22 µg/mL	40.2 ± 1.6 µM	24.3 ± 0.97 µg/mL	C[C@@H](c1ccccc1)N1C[C@@H](n2cc(CCCc3cn([C@@H]4CN([C@@H](C)c5ccccc5)[C@H]5CC[C@@H]4C5)nn3)nn2)[C@@H]2CC[C@H]1C2 [Compound 10, 1,3-Bis-(1-((1S,4S,5R)-2-((S)-1-phenylethyl)-2-azabicyclo[3.2.1]octan-4-yl)-1H-1,2,3-triazol-4-yl) propane]	3	11.8 ± 5.03 µM	7.17 ± 3.04 µg/mL	
32.4 ± 7.83 µM	19.7 ± 4.75 µg/mL	6 ± 0.86 µM	3.64 ± 0.52 µg/mL	51.5 ± 1.6 µM	31.2 ± 0.97 µg/mL	C[C@@H](c1ccccc1)N1C[C@@H](n2cc(COCc3cn([C@@H]4CN([C@@H](C)c5ccccc5)[C@H]5CC[C@@H]4C5)nn3)nn2)[C@@H]2CC[C@H]1C2 [Compound 12, (1S,1′S,4S,4′S,5R,5′R)-4,4′-(4,4′-(oxybis(methylene))bis(1H-1,2,3-triazole-4,1-diyl))bis(2-((S)-1-phenylethyl)-2-azabicyclo[3.2.1]octane)]	7	44.4 ± 7.5 µM	26.9 ± 4.55 µg/mL	
